Where “and” joins values, the source holds several entries; their conditions need not be identical. Equal entries are not always repeated.
Assay: xn = mol fraction of the nth substance listed

CC(C)O + O
Conditions | viscosity
293.15 K, 100 kPa, x1 = 0.2 | 3.802 mPa·s and 3.645 mPa·s
293.15 K, 100 kPa, x1 = 0.3 | 3.735 mPa·s
293.15 K, 101 kPa, x1 = 0.01 | 1.17 mPa·s
293.15 K, 101 kPa, x1 = 0.02 | 1.369 mPa·s
293.15 K, 101 kPa, x1 = 0.032 | 1.67 mPa·s
293.15 K, 101 kPa, x1 = 0.05 | 2.062 mPa·s
293.15 K, 101 kPa, x1 = 0.07069 | 2.544 mPa·s
293.15 K, 101 kPa, x1 = 0.1 | 3.054 mPa·s
293.15 K, 101 kPa, x1 = 0.11 | 3.26 mPa·s
293.15 K, 101 kPa, x1 = 0.2 | 3.741 mPa·s
293.15 K, 101 kPa, x1 = 0.23 | 3.875 mPa·s
293.15 K, 101 kPa, x1 = 0.41 | 3.493 mPa·s
298.15 K, 101 kPa, x1 = 0.01 | 1.029 mPa·s
298.15 K, 101 kPa, x1 = 0.02 | 1.188 mPa·s
298.15 K, 101 kPa, x1 = 0.032 | 1.416 mPa·s
298.15 K, 101 kPa, x1 = 0.07069 | 2.089 mPa·s
298.15 K, 101 kPa, x1 = 0.1 | 2.472 mPa·s
298.15 K, 101 kPa, x1 = 0.11 | 2.601 mPa·s
298.15 K, 101 kPa, x1 = 0.23 | 3.141 mPa·s
298.15 K, 101 kPa, x1 = 0.41 | 2.912 mPa·s
298.15 K, 101 kPa, x2 = 0.26 | 2.142 mPa·s
298.15 K, 101 kPa, x2 = 0.4678 | 2.527 mPa·s
298.15 K, 101 kPa, x2 = 0.6079 | 2.87 mPa·s
298.15 K, 101 kPa, x2 = 0.685 | 3.03 mPa·s
298.15 K, 101 kPa, x2 = 0.7249 | 3.054 mPa·s
298.15 K, 101 kPa, x2 = 0.805 | 2.978 mPa·s
298.15 K, 101 kPa, x2 = 0.89 | 2.431 mPa·s
298.15 K, 101 kPa, x2 = 0.9549 | 1.655 mPa·s
298.15 K, 101.33 kPa, x1 = 0.015 | 1.112 mPa·s
298.15 K, 101.33 kPa, x1 = 0.05 | 1.747 mPa·s
298.15 K, 101.33 kPa, x1 = 0.075 | 2.181 mPa·s
298.15 K, 101.33 kPa, x1 = 0.15 | 2.883 mPa·s
298.15 K, 101.33 kPa, x1 = 0.2 | 3.008 mPa·s
298.15 K, 101.33 kPa, x1 = 0.25 | 3.057 mPa·s
298.15 K, 101.33 kPa, x1 = 0.3 | 3.026 mPa·s
298.15 K, 101.33 kPa, x1 = 0.4 | 2.855 mPa·s
298.15 K, 101.33 kPa, x1 = 0.5 | 2.631 mPa·s
298.15 K, 101.33 kPa, x1 = 0.6 | 2.411 mPa·s
298.15 K, 101.33 kPa, x1 = 0.7 | 2.23 mPa·s
298.15 K, 101.33 kPa, x1 = 0.8 | 2.098 mPa·s
298.15 K, 101.33 kPa, x1 = 0.9 | 2.03 mPa·s
298.15 K, 101.33 kPa, x1 = 0.925 | 2.026 mPa·s
298.15 K, 101.33 kPa, x1 = 0.95 | 2.031 mPa·s
303.15 K, 100 kPa, x2 = 0.1 | 1.77 mPa·s
303.15 K, 100 kPa, x2 = 0.2 | 1.83 mPa·s
303.15 K, 100 kPa, x2 = 0.3 | 1.95 mPa·s
303.15 K, 100 kPa, x2 = 0.4 | 2.1 mPa·s
303.15 K, 100 kPa, x2 = 0.5 | 2.25 mPa·s
303.15 K, 100 kPa, x2 = 0.6 | 2.42 mPa·s
303.15 K, 100 kPa, x2 = 0.7 | 2.54 mPa·s
303.15 K, 100 kPa, x2 = 0.8 | 2.47 mPa·s
303.15 K, 100 kPa, x2 = 0.9 | 1.95 mPa·s
303.15 K, 101 kPa, x1 = 0.01 | 0.912 mPa·s
303.15 K, 101 kPa, x1 = 0.02 | 1.04 mPa·s
303.15 K, 101 kPa, x1 = 0.05 | 1.467 mPa·s
303.15 K, 101 kPa, x1 = 0.07069 | 1.735 mPa·s
303.15 K, 101 kPa, x1 = 0.1 | 2.041 mPa·s
303.15 K, 101 kPa, x1 = 0.2 | 2.504 mPa·s
303.15 K, 101 kPa, x1 = 0.23 | 2.573 mPa·s
303.15 K, 101 kPa, x1 = 0.41 | 2.434 mPa·s
303.15 K, 101 kPa, x2 = 0.1049 | 1.789 mPa·s
303.15 K, 101 kPa, x2 = 0.26 | 1.863 mPa·s
303.15 K, 101 kPa, x2 = 0.4678 | 2.158 mPa·s
303.15 K, 101 kPa, x2 = 0.6079 | 2.439 mPa·s
303.15 K, 101 kPa, x2 = 0.685 | 2.55 mPa·s
303.15 K, 101 kPa, x2 = 0.7249 | 2.557 mPa·s
303.15 K, 101 kPa, x2 = 0.805 | 2.451 mPa·s
303.15 K, 101 kPa, x2 = 0.89 | 2.007 mPa·s
303.15 K, 101 kPa, x2 = 0.9549 | 1.419 mPa·s
308.15 K, 101 kPa, x1 = 0.01 | 0.815 mPa·s
308.15 K, 101 kPa, x1 = 0.02 | 0.923 mPa·s
308.15 K, 101 kPa, x1 = 0.032 | 1.056 mPa·s
308.15 K, 101 kPa, x1 = 0.05 | 1.263 mPa·s
308.15 K, 101 kPa, x1 = 0.07069 | 1.48 mPa·s
308.15 K, 101 kPa, x1 = 0.1 | 1.717 mPa·s
308.15 K, 101 kPa, x1 = 0.11 | 1.749 mPa·s
308.15 K, 101 kPa, x1 = 0.2 | 2.109 mPa·s
308.15 K, 101 kPa, x1 = 0.23 | 2.142 mPa·s
308.15 K, 101 kPa, x1 = 0.41 | 2.044 mPa·s
308.15 K, 101 kPa, x2 = 0.1049 | 1.56 mPa·s

Reference: the CheMixHub viscosity set
